Assay results reported in ChEMBL document CHEMBL1201862, “PubChem BioAssay data set” (2004).
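Five compound concentrations were applied to cells in 96-well plates for 48 hours; endpoints were derived by simple linear interpolation of the resulting dose-response curve. Abbreviation: GI50, concentration required for 50% inhibition of growth.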 The source made the active and inactive calls. Rule as the data show it: active = GI50 up to about 1.1 µM and inactive = higher.

Columns and labels:
Test in all cases: NCI tumour cell line growth inhibition, 48 h
786-0 = tested on: 786-0
A498 = tested on: A498
A549 = tested on: A549
ACHN = tested on: ACHN
BT-549 = tested on: BT-549
CAKI-1 = tested on: CAKI-1
CCRF-CEM = tested on: CCRF-CEM
COLO 205 = tested on: COLO 205
DU-145 = tested on: DU-145
EKVX = tested on: EKVX
HCC 2998 = tested on: HCC 2998
HCT-116 = tested on: HCT-116
HCT-15 = tested on: HCT-15
HL-60 = tested on: HL-60
HOP-62 = tested on: HOP-62
HOP-92 = tested on: HOP-92
HT-29 = tested on: HT-29
Hs-578T = tested on: Hs-578T
IGROV-1 = tested on: IGROV-1
K562 = tested on: K562
KM12 = tested on: KM12
M14 = tested on: M14
MCF7 = tested on: MCF7
MDA-MB-231 = tested on: MDA-MB-231
MDA-MB-435 = tested on: MDA-MB-435
MDA-N = tested on: MDA-N
MOLT-4 = tested on: MOLT-4
Malme-3M = tested on: Malme-3M
NCI-H226 = tested on: NCI-H226
NCI-H23 = tested on: NCI-H23
NCI-H460 = tested on: NCI-H460
NCI-H522 = tested on: NCI-H522
NCI/ADR-RES = tested on: NCI/ADR-RES
OVCAR-3 = tested on: OVCAR-3
OVCAR-4 = tested on: OVCAR-4
OVCAR-5 = tested on: OVCAR-5
OVCAR-8 = tested on: OVCAR-8
PC-3 = tested on: PC-3
RPMI-8226 = tested on: RPMI-8226
RXF 393 = tested on: RXF 393
SF-268 = tested on: SF-268
SF-295 = tested on: SF-295
SF-539 = tested on: SF-539
SK-MEL-28 = tested on: SK-MEL-28
SK-MEL-2 = tested on: SK-MEL-2
SK-MEL-5 = tested on: SK-MEL-5
SK-OV-3 = tested on: SK-OV-3
SN12C = tested on: SN12C
SNB-19 = tested on: SNB-19
SNB-75 = tested on: SNB-75
SR = tested on: SR
SW-620 = tested on: SW-620
T47D = tested on: T47D
TK-10 = tested on: TK-10
U-251 = tested on: U-251
UACC-257 = tested on: UACC-257
UACC-62 = tested on: UACC-62
UO-31 = tested on: UO-31
LOX IMVI = tested on: LOX IMVI

With `C=CCC(CCC(C)=O)(C(=O)OCC)C(=O)OCC` the GI50 (786-0) was > 100 µM (inactive), the GI50 (A498) was > 100 µM (inactive) and the GI50 (A549) was > 100 µM (inactive). The GI50 (ACHN) was > 100 µM (inactive), the GI50 (BT-549) was > 100 µM (inactive) and the GI50 (CAKI-1) was > 100 µM (inactive). The GI50 (CCRF-CEM) was > 100 µM (inactive), the GI50 (COLO 205) was > 100 µM (inactive) and the GI50 (DU-145) was > 100 µM (inactive). The GI50 (EKVX) was > 100 µM (inactive), the GI50 (HCC 2998) was > 100 µM (inactive) and the GI50 (HCT-116) was > 100 µM (inactive). For the same compound, the GI50 (HCT-15) was over 100 µM, the GI50 (HL-60) was > 100 µM (inactive) and the GI50 (HOP-62) was > 100 µM (inactive). The GI50 (HOP-92) was > 100 µM (inactive), the GI50 (HT-29) was > 100 µM (inactive) and the GI50 (Hs-578T) was > 100 µM (inactive). For the same compound, the GI50 (IGROV-1) was > 100 µM (inactive), the GI50 (K562) was > 100 µM (inactive) and the GI50 (KM12) was > 100 µM (inactive). The GI50 (M14) was > 100 µM (inactive), the GI50 (MCF7) was > 100 µM (inactive) and the GI50 (MDA-MB-231) was > 100 µM (inactive). The GI50 (MDA-MB-435) was > 100 µM (inactive), the GI50 (MDA-N) was > 100 µM (inactive) and the GI50 (MOLT-4) was > 100 µM (inactive). The GI50 (Malme-3M) was > 100 µM (inactive), the GI50 (NCI-H226) was > 100 µM (inactive) and the GI50 (NCI-H23) was > 100 µM (inactive). The GI50 (NCI-H460) was > 100 µM (inactive), the GI50 (NCI-H522) was > 100 µM (inactive) and the GI50 (NCI/ADR-RES) was > 100 µM (inactive). The GI50 (OVCAR-3) was > 100 µM (inactive), the GI50 (OVCAR-4) was > 100 µM (inactive) and the GI50 (OVCAR-5) was > 100 µM (inactive). The GI50 (OVCAR-8) was > 100 µM (inactive), the GI50 (PC-3) was > 100 µM (inactive) and the GI50 (RPMI-8226) was > 100 µM (inactive). For the same compound, the GI50 (RXF 393) was > 100 µM (inactive), the GI50 (SF-268) was > 100 µM (inactive) and the GI50 (SF-295) was > 100 µM (inactive). The GI50 (SF-539) was > 100 µM (inactive), the GI50 (SK-MEL-28) was > 100 µM (inactive) and the GI50 (SK-MEL-2) was > 100 µM (inactive). For the same compound, the GI50 (SK-MEL-5) was > 100 µM (inactive), the GI50 (SK-OV-3) was > 100 µM (inactive) and the GI50 (SN12C) was > 100 µM (inactive). The GI50 (SNB-19) was > 100 µM (inactive), the GI50 (SNB-75) was > 100 µM (inactive) and the GI50 (SR) was > 100 µM (inactive). For the same compound, the GI50 (SW-620) was > 100 µM (inactive), the GI50 (T47D) was > 100 µM (inactive) and the GI50 (TK-10) was > 100 µM (inactive). The GI50 (U-251) was > 100 µM (inactive), the GI50 (UACC-257) was > 100 µM (inactive) and the GI50 (UACC-62) was > 100 µM (inactive). For the same compound, the GI50 (UO-31) was > 100 µM (inactive).
For `CCOP(=O)(OCC)C(F)(F)CC1CCCCC1`, the GI50 (786-0) was > 10 µM (inactive), the GI50 (A498) was > 10 µM (inactive) and the GI50 (A549) was > 10 µM (inactive). The GI50 (ACHN) was > 10 µM (inactive), the GI50 (BT-549) was > 10 µM (inactive) and the GI50 (CAKI-1) was > 10 µM (inactive). For the same compound, the GI50 (CCRF-CEM) was > 10 µM (inactive), the GI50 (COLO 205) was > 10 µM (inactive) and the GI50 (DU-145) was > 10 µM (inactive). The GI50 (EKVX) was > 10 µM (inactive), the GI50 (HCC 2998) was > 10 µM (inactive) and the GI50 (HCT-116) was > 10 µM (inactive). For the same compound, the GI50 (HCT-15) was over 10 µM, the GI50 (HL-60) was > 10 µM (inactive) and the GI50 (HOP-62) was > 10 µM (inactive). The GI50 (HOP-92) was > 10 µM (inactive), the GI50 (HT-29) was > 10 µM (inactive) and the GI50 (Hs-578T) was > 10 µM (inactive). For the same compound, the GI50 (IGROV-1) was > 10 µM (inactive), the GI50 (K562) was > 10 µM (inactive) and the GI50 (KM12) was > 10 µM (inactive). The GI50 (LOX IMVI) was > 10 µM (inactive), the GI50 (M14) was > 10 µM (inactive) and the GI50 (MCF7) was > 10 µM (inactive). For the same compound, the GI50 (MDA-MB-231) was > 10 µM (inactive), the GI50 (MDA-MB-435) was > 10 µM (inactive) and the GI50 (MDA-N) was > 10 µM (inactive). For the same compound, the GI50 (MOLT-4) was > 10 µM (inactive), the GI50 (Malme-3M) was > 10 µM (inactive) and the GI50 (NCI-H226) was > 10 µM (inactive). The GI50 (NCI-H23) was > 10 µM (inactive), the GI50 (NCI-H460) was > 10 µM (inactive) and the GI50 (NCI/ADR-RES) was > 10 µM (inactive). The GI50 (OVCAR-3) was > 10 µM (inactive), the GI50 (OVCAR-4) was > 10 µM (inactive) and the GI50 (OVCAR-5) was > 10 µM (inactive). For the same compound, the GI50 (OVCAR-8) was > 10 µM (inactive), the GI50 (PC-3) was > 10 µM (inactive) and the GI50 (RPMI-8226) was > 10 µM (inactive). For the same compound, the GI50 (RXF 393) was > 10 µM (inactive), the GI50 (SF-268) was > 10 µM (inactive) and the GI50 (SF-295) was > 10 µM (inactive). The GI50 (SF-539) was > 10 µM (inactive), the GI50 (SK-MEL-28) was > 10 µM (inactive) and the GI50 (SK-MEL-2) was > 10 µM (inactive). The GI50 (SK-MEL-5) was > 10 µM (inactive), the GI50 (SK-OV-3) was > 10 µM (inactive) and the GI50 (SN12C) was > 10 µM (inactive). The GI50 (SNB-19) was > 10 µM (inactive), the GI50 (SNB-75) was 4.38 µM (inactive) and the GI50 (SR) was > 10 µM (inactive). For the same compound, the GI50 (SW-620) was > 10 µM (inactive), the GI50 (T47D) was > 10 µM (inactive) and the GI50 (TK-10) was > 10 µM (inactive). The GI50 (U-251) was > 10 µM (inactive), the GI50 (UACC-257) was > 10 µM (inactive) and the GI50 (UACC-62) was > 10 µM (inactive). The GI50 (UO-31) was > 10 µM (inactive).
